{"source": "ChEMBL document CHEMBL5150003", "about": "“Why All the Fury over Furin?” (J Med Chem, 2022)", "key": {"[1]": {"test": "Stability in mouse plasma assessed as half-life", "format": "ADME, cell-free"}, "Furin [2]": {"target": "T1, Furin (Homo sapiens, UniProt P09958)", "T1 sequence (P09958 whole entry)": "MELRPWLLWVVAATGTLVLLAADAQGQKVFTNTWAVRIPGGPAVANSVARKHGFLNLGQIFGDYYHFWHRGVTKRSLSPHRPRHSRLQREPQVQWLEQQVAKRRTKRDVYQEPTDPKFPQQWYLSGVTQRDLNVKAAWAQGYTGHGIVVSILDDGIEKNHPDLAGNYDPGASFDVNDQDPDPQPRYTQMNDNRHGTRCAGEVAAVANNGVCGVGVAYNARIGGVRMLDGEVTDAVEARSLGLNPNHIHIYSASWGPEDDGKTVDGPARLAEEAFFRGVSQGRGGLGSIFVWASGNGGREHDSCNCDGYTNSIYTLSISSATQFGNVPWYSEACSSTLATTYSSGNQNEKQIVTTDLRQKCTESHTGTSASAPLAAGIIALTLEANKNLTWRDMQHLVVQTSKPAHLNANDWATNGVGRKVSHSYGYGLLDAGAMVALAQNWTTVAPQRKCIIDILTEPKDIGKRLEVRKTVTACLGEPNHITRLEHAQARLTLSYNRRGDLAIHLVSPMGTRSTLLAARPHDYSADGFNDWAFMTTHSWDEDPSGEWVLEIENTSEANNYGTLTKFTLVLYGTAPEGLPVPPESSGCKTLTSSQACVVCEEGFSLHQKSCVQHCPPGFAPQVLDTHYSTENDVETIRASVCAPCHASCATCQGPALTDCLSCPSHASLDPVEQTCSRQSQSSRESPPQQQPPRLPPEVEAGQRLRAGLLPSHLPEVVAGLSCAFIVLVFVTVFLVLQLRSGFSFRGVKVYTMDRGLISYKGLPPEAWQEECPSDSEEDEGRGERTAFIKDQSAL", "test": "Inhibition of furin (unknown origin)"}, "[3]": {"test": "Stability in mouse plasma assessed as compound remaining measured after 24 hrs", "format": "ADME, cell-free", "details": "read-out: Stability"}, "Mus musculus [4]": {"tested_on": "Mus musculus", "test": "Antifibrotic activity against bleomycin-induced mouse lung fibrosis model assessed as inhibition of TGF-beta secretion in lung at 10 mg/kg, ip administered twice daily", "format": "functional"}, "Furin [5]": {"target": "T1, Furin", "test": "Inhibition of furin in human U2OS cells measured after 24 hrs by fluorescence assay", "format": "cell-based"}, "Mus musculus [6]": {"tested_on": "Mus musculus", "test": "Antifibrotic activity against bleomycin-induced mouse lung fibrosis model assessed as inhibition of hydroxyproline content in lung at 10 mg/kg, ip administered twice daily", "format": "functional"}, "Vero": {"tested_on": "Vero", "test": "Protective activity against Escherichia coli O157:H7 Shiga toxin-induced cytotoxicity in monkey Vero cells measured by LDH assay", "format": "functional, cell-based", "details": "Chlorocebus sabaeus"}, "[7]": {"test": "Dissociation constant, pKa of the compound", "format": "physicochemical"}, "Furin [8]": {"target": "T1, Furin", "test": "Inhibition of soluble recombinant human furin using pyroGlu-Arg-Thr-Lys-Arg-AMC as substrate and measured by fluorescence assay"}, "Furin [9]": {"target": "T1, Furin", "test": "Inhibition of human furin expressed in HEK293 cells using pGlu-Arg-Thr-LysArg-AMC as substrate and measured by fluorescence based assay"}, "Furin [10]": {"target": "T1, Furin", "test": "Inhibition of recombinant human furin using Phac-Arg-Val-Arg-Arg-AMC as substrate incubated for 30 mins and measured by microplate reader method"}, "Furin [11]": {"target": "T1, Furin", "test": "Inhibition of human furin using Pyr-RTKR-AMC as substrate preincubated for 30 mins followed by substrate addition and measured by fluorescence based assay"}, "Mus musculus [12]": {"tested_on": "Mus musculus", "test": "Antifibrotic activity against bleomycin-induced mouse lung fibrosis model assessed as inhibition of hydroxyproline content in lung at 10 mg/kg, ip administered once daily", "format": "functional"}, "Mus musculus [13]": {"tested_on": "Mus musculus", "test": "Antifibrotic activity against bleomycin-induced mouse lung fibrosis model assessed as inhibition of TGF-beta secretion in lung at 10 mg/kg, ip administered once daily", "format": "functional"}, "Mus musculus [14]": {"tested_on": "Mus musculus", "test": "Antifibrotic activity against bleomycin-induced mouse lung fibrosis model assessed as inhibition of TGF-beta secretion in lung at 30 mg/kg, po administered once daily", "format": "functional"}, "Mus musculus [15]": {"tested_on": "Mus musculus", "test": "Antifibrotic activity against bleomycin-induced mouse lung fibrosis model assessed as inhibition of hydroxyproline content in lung at 30 mg/kg, po administered once daily", "format": "functional"}}, "note": "Peptide text beside a SMILES is read from it. * marks the point of attachment. X1 = C[C@@H](O)[C@H](NN(CCCNC(N)N)CN*)C(N)=O; X5 = N=C(N)NC/C=C/CN*", "data": [{"compound": "CC1C(=O)N[C@@H](CCCNC(=N)N)C(=O)N[C@@H](C)C(=O)N[C@@H](CCCNC(=N)N)C(=O)N[C@@H](CCCNC(=N)N)C(=O)N[C@@H](CCCNC(=N)N)C(=O)N[C@H](C(=O)N[C@@H](CCCCN)C(=O)N[C@@H](CCCNC(=N)N)C(=O)N[C@H](C(N)=O)[C@@H](C)O)CCCCNC(CCCNC(=N)N)c2cn1nn2", "note": "(some centres undefined)", "values": [{"measurement": "half-life", "setting": "[1]", "result": 0.7, "unit": "h"}, {"measurement": "Ki", "setting": "Furin [2]", "result": 16.7, "unit": "nM"}, {"measurement": "remaining at 24 h", "setting": "[3]", "result": 28, "unit": "%"}]}, {"compound": "CC(=O)NCC1CCN(Cc2cc(Oc3ccc(N4CCN(CCC(=O)O)CC4)nc3)nc(-c3cc(Cl)cc(Cl)c3)c2)CC1", "values": [{"measurement": "inhibition in vivo at 10 mg/kg", "setting": "Mus musculus [4]", "result": 69, "unit": "%"}, {"measurement": "pXC50", "setting": "Furin [5]", "result": 7.6}, {"measurement": "inhibition in vivo at 10 mg/kg", "setting": "Mus musculus [6]", "result": 67, "unit": "%"}]}, {"compound": "CC(=O)N[C@@H](CCCNC(=N)N)C(=O)N[C@@H](C)C(=O)N[C@@H](CCCNC(=N)N)C(=O)N[C@@H](CCCNC(=N)N)C(=O)N[C@@H](CCCNC(=N)N)C(=O)N[C@@H](CCCCN)C(=O)N[C@@H](CCCCN)C(=O)NC/C=C/CNC(=N)N", "note": "(Ac-RARRRKK-X5)", "values": [{"measurement": "IC50", "setting": "Vero", "result": 71000, "unit": "nM"}]}, {"compound": "CC(C)(C)[C@H](NC(=O)[C@H](CCCNC(=N)N)NC(=O)Cc1ccc(CNC(=N)N)cc1)C(=O)N[C@@H](CCCNC(=N)N)C(=O)NCc1ccc(C(=N)N)c(F)c1", "values": [{"measurement": "pKa", "setting": "[7]", "result": 9.46}, {"measurement": "IC50", "setting": "Furin [2]", "result": 0.56, "unit": "nM"}, {"measurement": "Ki", "setting": "Furin [2]", "result": 0.0223, "unit": "nM"}]}, {"compound": "N=C(N)N/N=C/c1cccc(OCCCOc2cccc(/C=N/NC(=N)N)c2)c1", "values": [{"measurement": "Ki", "setting": "Furin [8]", "result": 1700, "unit": "nM"}]}, {"compound": "CC(C)[C@H](NC(=O)[C@H](CCCNC(=N)N)NC(=O)Cc1cccc(CNC(=N)N)c1)C(=O)N[C@@H](CCCNC(=N)N)C(=O)NCc1ccc(C(=N)N)cc1", "values": [{"measurement": "Ki", "setting": "Furin [9]", "result": 0.016, "unit": "nM"}]}, {"compound": "N=C(N)N/N=C/c1ccc(Oc2ccc(Oc3ccc(/C=N/NC(=N)N)cc3)cc2)cc1", "values": [{"measurement": "Ki", "setting": "Furin [8]", "result": 740, "unit": "nM"}]}, {"compound": "CC(C)(C)[C@H](NC(=O)[C@H](CCCNC(=N)N)NC(=O)Cc1ccc(CNC(=N)N)cc1)C(=O)N[C@@H](CCCONC(=N)N)C(=O)NCc1ccc(C(=N)N)cc1", "values": [{"measurement": "Ki", "setting": "Furin [10]", "result": 0.0131, "unit": "nM"}]}, {"compound": "C/C(=N\\NC(=N)N)c1ccc(NC(=O)CCCCC(=O)Nc2ccc(/C(C)=N/NC(=N)N)cc2)cc1", "values": [{"measurement": "Ki", "setting": "Furin [8]", "result": 1210, "unit": "nM"}]}, {"compound": "CC(=O)N[C@@H](CCCNC(=N)N)C(=O)N[C@H](C(=O)N[C@@H](Cc1ccc(N=C(N)N)cc1)C(=O)NCc1ccc(/C(N)=N/O)cc1)C(C)C", "values": [{"measurement": "Ki", "setting": "Furin [11]", "result": 1200, "unit": "nM"}]}, {"compound": "CC(=O)N[C@@H](CCCNC(=N)N)C(=O)N[C@H](C(=O)N[C@@H](Cc1ccc(N=C(N)N)cc1)C(=O)NCc1ccc(C(=N)N)cc1F)C(C)C", "values": [{"measurement": "Ki", "setting": "Furin [11]", "result": 9, "unit": "nM"}]}, {"compound": "CC(=O)N[C@@H](CCCNC(=N)N)C(=O)N[C@@H](C)C(=O)N[C@@H](CCCNC(=N)N)C(=O)N[C@@H](CCCNC(=N)N)C(=O)N[C@@H](CCCNC(=N)N)C(=O)N[C@@H](CCCCN)C(=O)N[C@@H](CCCCN)C(=O)NCN(CCCNC(N)N)N[C@H](C(N)=O)[C@@H](C)O", "note": "(Ac-RARRRKK-X1)", "values": [{"measurement": "half-life", "setting": "[1]", "result": 2.25, "unit": "h"}, {"measurement": "Ki", "setting": "Furin [2]", "result": 28, "unit": "nM"}, {"measurement": "remaining at 24 h", "setting": "[3]", "result": 57, "unit": "%"}, {"measurement": "IC50", "setting": "Vero", "result": 314000, "unit": "nM"}]}, {"compound": "CNC(=O)NCC1CCN(Cc2cc(Oc3ccc(N4CCN(CCC(=O)O)CC4)nc3)nc(-c3cc(Cl)cc(Cl)c3)c2)CC1", "values": [{"measurement": "pXC50", "setting": "Furin [5]", "result": 7.6}, {"measurement": "inhibition in vivo at 10 mg/kg", "setting": "Mus musculus [12]", "result": 39, "unit": "%"}, {"measurement": "inhibition in vivo at 10 mg/kg", "setting": "Mus musculus [13]", "result": 67, "unit": "%"}]}, {"compound": "CC(C)(C)[C@H](NC(=O)[C@H](CCCNC(=N)N)NC(=O)Cc1ccc(CNC(=N)N)cc1)C(=O)N[C@@H](CCCNC(=N)N)C(=O)NCc1ccc(CN)cc1", "values": [{"measurement": "pKa", "setting": "[7]", "result": 9.28}, {"measurement": "IC50", "setting": "Furin [2]", "result": 9.53, "unit": "nM"}, {"measurement": "Ki", "setting": "Furin [2]", "result": 2.52, "unit": "nM"}]}, {"compound": "CC(=O)NN(CCCNC(=N)N)CC(=O)N[C@@H](C)C(=O)N[C@@H](CCCNC(=N)N)C(=O)N[C@@H](CCCNC(=N)N)C(=O)N[C@@H](CCCNC(=N)N)C(=O)N[C@@H](CCCCN)C(=O)N[C@@H](CCCCN)C(=O)NN(CCCNC(=N)N)CC(=O)N[C@H](C(N)=O)[C@@H](C)O", "values": [{"measurement": "half-life", "setting": "[1]", "result": 2.68, "unit": "h"}, {"measurement": "Ki", "setting": "Furin [2]", "result": 46, "unit": "nM"}, {"measurement": "remaining at 24 h", "setting": "[3]", "result": 45, "unit": "%"}, {"measurement": "IC50", "setting": "Vero", "result": 20800, "unit": "nM"}]}, {"compound": "COC(=O)NCC1CCN(Cc2cc(Oc3cnc(N4CCN(CCC(=O)O)CC4)nc3)nc(-c3cc(Cl)cc(Cl)c3)c2)CC1", "values": [{"measurement": "inhibition in vivo at 30 mg/kg", "setting": "Mus musculus [14]", "result": 7, "unit": "%"}, {"measurement": "inhibition in vivo at 30 mg/kg", "setting": "Mus musculus [15]", "result": -14, "unit": "%"}, {"measurement": "pXC50", "setting": "Furin [5]", "result": 7.5}]}, {"compound": "CN1CCCN(c2ncc(Oc3cc(CN4CCC(CC(=O)O)CC4)cc(-c4cc(Cl)cc(Cl)c4)n3)cn2)CC1", "values": [{"measurement": "inhibition in vivo at 30 mg/kg", "setting": "Mus musculus [14]", "result": 34, "unit": "%"}, {"measurement": "inhibition in vivo at 30 mg/kg", "setting": "Mus musculus [15]", "result": 36, "unit": "%"}, {"measurement": "pXC50", "setting": "Furin [5]", "result": 8.2}]}, {"compound": "CC(C)(C)[C@H](NC(=O)CCCCNC(=N)N)C(=O)N[C@@H](CCCNC(=N)N)C(=O)NCc1ccc(C(=N)N)cc1", "values": [{"measurement": "Ki", "setting": "Furin [10]", "result": 1.26, "unit": "nM"}]}, {"compound": "CC(C)(C)[C@H](NC(=O)[C@H](CCCNC(=N)N)NC(=O)Cc1ccccc1)C(=O)N[C@@H](CCCNC(=N)N)C(=O)NCc1ccc(C(=N)N)cc1", "values": [{"measurement": "Ki", "setting": "Furin [9]", "result": 0.17, "unit": "nM"}]}]}
